Test results reported in US6855518B2, “Anti-listeria bacteriocin” (Rhodia Chimie, priority 2000, dated 2005).
Entries after “also recorded” stand apart in the source; their conditions may differ. Ends that are not written are not given here.

Tests used:
L. inocua 8811 = assay: Well test of bacteriocin activity (inhibition zones on agar); type: cell-based; conditions: 50 microliters of sakacin G solution, BHI agar, overnight at 37° C.
Description: (§1) • Bacterial strains and culture media. Lactobacillus sakei 2512 is cultured at 30° C. in MRS medium (DIFCO Laboratories) sterilised for 12 minutes at 110° C. The indicator strains are cultured in BHI medium (brain-heart infusion; DIFCO Laboratories) at 37° C. • Test of activity. BHI medium, supplemented with 10 g/l agar, is inoculated at 1% with a preculture of the indicator strain in stationary phase before being poured into a Petri dish. 50 microliters of sakacin G solution are placed in wells formed in cooled agar with a hole punch. The bacteriocin activity manifests itself in the appearance of inhibition zones around the wells after incubation overnight at 37° C. • Protein analysis. Sakacin G is analysed by mass spectrometry using a Perkin-Elmer Sciex API 165 device equipped with an Ionspray ionisation source. After lyophilisation, the active HPLC fraction is taken up in an acetonitrile/water solution (1:1) containing 0.1% formic acid, and then injected by infusion at a rate of 5 μl/minute.
(§2) The sakacin G sensitivity of 17 bacterial strains was tested by the well test method (see Materials and Methods).

[1] = tested on: Lb. Delbrueckii DSM 20081; assay: as above; type: cell-based
Description: as §1, §2

Lc. lactis ATCC11454 = assay: as above; type: cell-based; conditions: 50 microliters of sakacin G solution, BHI agar, overnight at 37° C.
Description: as §1, §2

[2] = tested on: Ln. Mesenteroides DSM 20240; assay: as above; type: cell-based; conditions: 50 microliters of sakacin G solution, BHI agar, overnight at 37° C.
Description: as §1, §2

[3] = tested on: Ln. Mesenteroides DSM 20484; assay: as above; type: cell-based; conditions: 50 microliters of sakacin G solution, BHI agar, overnight at 37° C.
Description: as §1, §2

[4] = tested on: Ln. Paramesenteroides DSM 20288; assay: as above; type: cell-based; conditions: 50 microliters of sakacin G solution, BHI agar, overnight at 37° C.
Description: as §1, §2

[5] = tested on: P. acidilactici ENSAIA 583; assay: as above; type: cell-based; conditions: 50 microliters of sakacin G solution, BHI agar, overnight at 37° C.
Description: as §1, §2

Lb. Plantarum DSM 20174 = assay: as above; type: cell-based, Lactobacillus plantarum
Description: as §1, §2

Lb brevis DSM 20054 = assay: as above; type: cell-based, Lactobacillus brevis
Description: as §1, §2

Lb. casei DSM 20011 = assay: as above; type: cell-based, Lactobacillus casei
Description: as §1, §2

Lb. sakei 2515 = assay: as above; type: cell-based, Lactobacillus sakei
Description: as §1, §2

P. cerevisiae IP 5492 = assay: as above; type: cell-based, Pediococcus cerevisiae
Description: as §1, §2

E. faecium ENSAIA 631 = assay: as above; type: cell-based, Enterococcus faecium
Description: as §1, §2

E. faecalis ENSAIA 636 = assay: as above; type: cell-based, Enterococcus faecalis; conditions: 50 microliters of sakacin G solution, BHI agar, overnight at 37° C.
Description: as §1, §2

E. faecalis IP 5430 = assay: as above; type: cell-based, Enterococcus faecalis; conditions: 50 microliters of sakacin G solution, BHI agar, overnight at 37° C.
Description: as §1, §2

E. durans ENSAIA 630 = assay: as above; type: cell-based, Enterococcus durans
Description: as §1, §2

L. ivanovi BUG 496 = assay: as above; type: cell-based, Listeria ivanovii
Description: as §1, §2

Listeria strains = assay: Inhibition spectrum, for Listeria; type: cell-based; conditions: all the Listeria strains tested
Description: as §1, §2

Enterococcus faecalis = assay: Inhibition spectrum, Enterococcus faecalis; type: cell-based
Description: as §1, §2

Substance: sakacin G: class IIa anti-Listeria bacteriocin polypeptide from Lactobacillus sakei 2512, about 3834 Da, two disulfide bridges; mature sequence SEQ ID NO: 12 (KYYGNGVSCNSHGCSVNWGQAWTCGVNHLANGGHGVC; disulfide (positions not given here))
- Radius of the inhibition halos (L. inocua 8811): 3 mm
- Bacteriocin activity (in words) ([1]; Lactobacillus debrueckii): inactive
- Radius of the inhibition halos ([1]; well test, 50 microliters of sakacin G solution, BHI agar, overnight at 37° C., Lb. Delbrueckii DSM 20081): 0 mm
- Radius of the inhibition halos (Lc. lactis ATCC11454): 0 mm
- Radius of the inhibition halos [2]: 0 mm
- Radius of the inhibition halos [3]: 0 mm
- Radius of the inhibition halos [4]: 0 mm
- Radius of the inhibition halos [5]: 0 mm
- Bacteriocin activity (in words) (Lb. Plantarum DSM 20174; Lactobacillus plantarum): inactive
- Radius of the inhibition halos (Lb. Plantarum DSM 20174; well test, 50 microliters of sakacin G solution, BHI agar, overnight at 37° C., Lb. Plantarum DSM 20174): 0 mm
- Bacteriocin activity (in words) (Lb brevis DSM 20054; Lactobacillus brevis): inactive
- Radius of the inhibition halos (Lb brevis DSM 20054; well test, 50 microliters of sakacin G solution, BHI agar, overnight at 37° C., Lb brevis DSM 20054): 0 mm
- Bacteriocin activity (in words) (Lb. casei DSM 20011; Lactobacillus casei): inactive
- Radius of the inhibition halos (Lb. casei DSM 20011; well test, 50 microliters of sakacin G solution, BHI agar, overnight at 37° C., Lb. casei DSM 20011): 0 mm
- Bacteriocin activity (in words) (Lb. sakei 2515; strains of Lactobacillus sakei other than Lactobacillus sakei 2512): especially effective
- Radius of the inhibition halos (Lb. sakei 2515; well test, 50 microliters of sakacin G solution, BHI agar, overnight at 37° C., Lb. sakei 2515): 1 mm
- Bacteriocin activity (in words) (P. cerevisiae IP 5492; Pediococcus cerevisiae): especially effective
- Radius of the inhibition halos (P. cerevisiae IP 5492; well test, 50 microliters of sakacin G solution, BHI agar, overnight at 37° C., P. cerevisiae IP 5492): 1 mm
- Bacteriocin activity (in words) (E. faecium ENSAIA 631; Enterococcus faecium): inactive; also recorded: not against Enterococcus faecium
- Radius of the inhibition halos (E. faecium ENSAIA 631; well test, 50 microliters of sakacin G solution, BHI agar, overnight at 37° C., E. faecium ENSAIA 631): 0 mm
- Radius of the inhibition halos (E. faecalis ENSAIA 636): 1 mm
- Radius of the inhibition halos (E. faecalis IP 5430): 2 mm
- Bacteriocin activity (in words) (E. durans ENSAIA 630; Enterococcus durans): especially effective; also recorded: active
- Radius of the inhibition halos (E. durans ENSAIA 630; well test, 50 microliters of sakacin G solution, BHI agar, overnight at 37° C., E. durans ENSAIA 630): 2 mm
- Activity of the purified HPLC fraction (in words) (L. ivanovi BUG 496; HPLC fraction, peak at 23 minutes, Listeria ivanovii BUG 496): active
- Radius of the inhibition halos (L. ivanovi BUG 496; well test, 50 microliters of sakacin G solution, BHI agar, overnight at 37° C., L. ivanovi BUG 496): 6 mm
- Bacteriocin activity (in words) (Listeria strains): especially effective; also recorded: active
- Bacteriocin activity (in words) (Enterococcus faecalis): especially effective; also recorded: active
